The record followed here is US20250388592A1 (REMYND N.V., priority 2022, published 2025).

The assay has as its system M17_3TAU(P301L) cells. Briefly: TAU-induced cytotoxicity (LDH) in the neuroblastoma tauopathy model. It is filed as cell-based. The conditions noted are these: Homo sapiens, 168 h, inhibition of TAU-induced toxicity, 7 days retinoic acid differentiation, LDH readout. The text has this:
A TAU expression plasmid was constructed by sub-cloning the cDNA encoding for human TAU-P301L protein, wherein proline at position 301 is substituted by a leucine residue, into mammalian expression vector pcDNA3.1 resulting in the plasmid pcDNA3.1-TAUP301L. Plasmids pcDNA3.1 and pcDNA3.1-TAU P301L were transfected into human neuroblastoma cells (BE-M17; ATCC No. CRL-2267™) using lipofectamine reagent and subsequently, independent clonal cell lines with the plasmids stably integrated into the genome were selected by antibiotic resistance selection (Geneticin (G418)), resulting in cell lines M17.pcDNA3 and M17_3TAUP301L. Expression of the TAUP301 L gene in the M17_3TAUP301 L cells was confirmed by Western blot analysis.
Differentiation of the cells with RA leads to phosphorylation and subsequent aggregation of TAU, inducing a tauopathy in these cells. Cytotoxicity of cells was measured by quantification of lactate dehydrogenase (LDH) levels. In dead cells LDH is leaked out of the cells into the medium due to a loss of plasma-membrane integrity.
Briefly, 3 days preceding the experiment pre-cultures of M17.pcDNA3 and M17_3TAU(P301L) cells were prepared, starting from a stock culture, at a density of 50.000-100.000 cells/cm2 in detection medium (Optimem Reduced Serum without phenol red (Gibco, Cat. 31985-047) supplemented with 1% fetal calf serum (FCS), 1 mM sodium pyruvate, 1×non-essential amino acids (NEAA), 500 μg/ml G418 and 0.5×antibiotic/antimycotic (ABAM)). At the day of the experiment these precultures were diluted to ˜[…] in detection medium without FCS and 60 μL of this suspension is dispensed per well into a 96-well microtiter plate. After 3 hours of incubation at 37° C./5% C02 an equal volume of detection medium containing 2.5 μM RA was added and subsequently incubated for 7 days at 37° C./5% CO2. After 7 days, LDH activity was determined using the Promega Cytotox 96 Non-Radioactive cytotoxicity assay (Cat. G1780), according the manufacturer's instructions. Cytotoxicity is measured as the ratio of LDH increase in the supernatant divided by the LDH increase in the total cell suspension (sum of the LDH measured in cells and supernatant). Toxicity was determined after 7 days of differentiation with retinoic acid in M17_3TAU(P301 L) cells compared to M17.pcDNA3 cells.
The M17_3TAU(P301L) cell line makes it possible to assess the ability of novel compounds to inhibit TAU-induced cytotoxicity. […] Compounds were tested for their ability to hamper TAU-induced toxicity at different concentrations, ranging from low non-effective concentrations to high potent concentrations. Afterwards, the dose-dependent inhibition curve was used to calculate their EC50 (Table 3B).
For the molecule `COc1ccc(OC)c(CNC2CC3(C2)CC(Nc2nc(Cc4ccc(Cl)cc4)ns2)C3)c1` (stereo not shown) [Cpd B327, N-(3-(4-chlorobenzyl)-1,2,4-thiadiazol-5-yl)-N′-(2,5-dimethoxybenzyl) spiro[3.3]heptane-2,6-diamine], a half-maximal response (EC50) required 9.9 nM.
`O=C(Cc1ccc(Cl)cc1)N1CC2(CN(Cc3ccc(F)c(F)c3)C2)C1` [Cpd B055, 2-(4-chlorophenyl)-1-(6-(3,4-difluorobenzyl)-2,6-diazaspiro[3.3]heptan-2-yl)ethanone] came in with an EC50 of 5.13 nM.
Take `Cc1nc(CN2CC3(C2)CN(C(=O)CC2CCC(F)(F)CC2)C3)co1` [Cpd B127]: the concentration for a half-maximal effect (EC50) came to 67.6 nM.
On to `Cc1nc(CN2CC3(C2)CN(C(=O)Cc2cccc(C(F)(F)F)c2)C3)cs1` [Cpd B100], for which the EC50 was determined as 261 nM.
In the case of `Fc1ccccc1CNC1CC2(C1)CC(Nc1nc(Cc3ccc(Cl)cc3)ns1)C2` (stereo not shown) [Cpd B312, N-(3-(4-chlorobenzyl)-1,2,4-thiadiazol-5-yl)-N′-(2-fluorobenzyl) spiro[3.3]heptane-2,6-diamine], the EC50 turned out to be 2.2 nM.
With `Cc1cccnc1CN1CC2(C1)CN(C(=O)NCc1cccc(C(F)(F)F)c1)C2` [Cpd B435] the figure was 390 nM; with `CC(C)CCN1CC2(C1)CN(C(=O)Cc1ccc(Cl)cc1)C2` [Cpd B053, 2-(4-chlorophenyl)-1-(6-isopentyl-2,6-diazaspiro[3.3]heptan-2-yl)ethanone], 5.07 nM.
In turn, `COc1cccc(CN2CC3(C2)CN(C(=O)CC2CCC(F)(F)CC2)C3)c1` [Cpd B074] displayed an EC50 of 3.61 nM.
In the case of `O=C(Cc1ccc(F)cc1)N1CC2(CN(CCc3ccccc3Cl)C2)C1` [Cpd B063, 1-{6-[2-(2-Chloro-phenyl)-ethyl]-2,6-diaza-spiro[3.3]hept-2-yl}-2-(4-fluoro-phenyl)-ethanone], the EC50 was determined as 3.12 nM.
To `NC(=O)c1cccc(CN2CC3(C2)CN(C(=O)Cc2ccc(F)cc2)C3)c1` [Cpd B012, 3-{6-[2-(4-Fluoro-phenyl)-acetyl]-2,6-diaza-spiro[3.3]hept-2-ylmethyl}-benzamide] belongs 45.2 nM; to `O=C(Cc1ccc(Cl)cc1)N1CC2(CN(Cc3ccccc3OC(F)(F)F)C2)C1` [Cpd B034, 2-(4-chlorophenyl)-1-(6-(2-(trifluoromethoxy)benzyl)-2,6-diazaspiro[3.3]heptan-2-yl)ethanone], 6.04 nM; to `O=C(NCC1CCC(F)(F)CC1)N1CC2(CN(Cc3ccc(F)cc3C(F)(F)F)C2)C1` [Cpd B201], 3.55 nM.
Regarding `COc1cccc(CN2CC3(C2)CN(C(=O)OCc2ccc(Cl)cc2)C3)c1` [Cpd B463], the EC50 is 41.7 nM.
Consider `CC(c1ccccc1)N1CC2(CN(C(=O)Cc3ccc(Cl)cc3)C2)C1` (stereo not shown) [Cpd B065, 2-(4-chlorophenyl)-1-(6-(1-phenylethyl)-2,6-diazaspiro[3.3]heptan-2-yl)ethanone], for which the EC50 came to 3.23 nM.
Molecule `Cc1cc(CN2CC3(C2)CN(C(=O)Cc2ccc(F)cc2)C3)no1` [Cpd B021, 2-(4-Fluoro-phenyl)-1-[6-(5-methyl-isoxazol-3-ylmethyl)-2,6-diaza-spiro[3.3]hept-2-yl]-ethanone] gave an EC50 of 167 nM.
`Cc1nc(CN2CC3(C2)CN(C(=O)CC2CCC(F)(F)CC2)C3)c(Cl)s1` [Cpd B117] came in with an EC50 of 3.81 nM.
Molecule `Cc1cccc(CN2CC3(C2)CN(C(=O)Cc2ccc(F)cc2)C3)n1` [Cpd B017, 2-(4-Fluoro-phenyl)-1-[6-(6-methyl-pyridin-2-ylmethyl)-2,6-diaza-spiro[3.3]hept-2-yl]-ethanone] displayed a concentration for a half-maximal effect (EC50) of 26.7 nM.
To `Cc1nc(CN2CC3(C2)CN(C(=O)N(C)C2CCC(F)(F)CC2)C3)cs1` [Cpd B172] belongs 102 nM; to `Cc1cc(CN2CC3(C2)CN(C(=O)CC2CCC(F)(F)CC2)C3)n[nH]1` [Cpd B449], 119 nM; to `Cc1ccc(CN2CC3(C2)CN(C(=O)NCc2ccc(F)cc2)C3)[nH]1` [Cpd B421], 981 nM.
To `CCCN1CC2(C1)CN(C(=O)Cc1ccc(Cl)cc1)C2` [Cpd B042, 2-(4-chlorophenyl)-1-(6-propyl-2,6-diazaspiro[3.3]heptan-2-yl)ethanone] belongs 32.8 nM.
In the case of `COc1cccc(CN2CC3(C2)CN(C(=O)CN(C)c2ccccc2)C3)c1` [Cpd B075], a half-maximal response (EC50) required 61.3 nM.
To `COc1cccc(CN2CC3(C2)CN(C(=O)NC2CC(F)(F)C2)C3)c1` [Cpd B422] belongs 978 nM; to `O=C(NC1CCC(F)(F)CC1)N1CC2(CN(Cc3c(F)cccc3C(F)(F)F)C2)C1` [Cpd B208], 252 nM; to `Cc1cccc(CCN2CC3(C2)CN(C(=O)Cc2ccc(F)cc2)C3)c1` [Cpd B028, 2-(4-Fluoro-phenyl)-1-[6-(2-m-tolyl-ethyl)-2,6-diaza-spiro[3.3]hept-2-yl]-ethanone], 12.9 nM.
As to `O=C(Nc1cccc(C(F)(F)F)c1)N1CC2(CN(Cc3ccc(F)cc3)C2)C1` [Cpd B189], the EC50 is 10.6 nM.
With `COc1cccc(CC(=O)N2CC3(CN(Cc4ccc(F)cc4)C3)C2)c1` [Cpd B425] the figure was 854 nM; with `CS(=O)(=O)c1ccc(CNC2CC3(C2)CC(Nc2nc(Cc4ccc(Cl)cc4)ns2)C3)cc1` (stereo not shown) [Cpd B331, N-(3-(4-chlorobenzyl)-1,2,4-thiadiazol-5-yl)-N′-(4-(methylsulfonyl)benzyl) spiro[3.3]heptane-2,6-diamine], 73.3 nM; with `COc1cccc(CNC2CC3(C2)CC(Nc2nc(Cc4ccc(Cl)cc4)ns2)C3)c1OC` (stereo not shown) [Cpd B314, N-(3-(4-chlorobenzyl)-1,2,4-thiadiazol-5-yl)-N′-(2,3-dimethoxybenzyl) spiro[3.3]heptane-2,6-diamine], 3 nM.
`Clc1ccc(Cc2nsc(NC3CC4(CC(NCc5ccc(Cl)c(Cl)c5)C4)C3)n2)cc1` (stereo not shown) [Cpd B306, N-(3-(4-chlorobenzyl)-1,2,4-thiadiazol-5-yl)-N′-(3,4-dichlorobenzyl) spiro[3.3]heptane-2,6-diamine] returned an EC50 of 35.7 nM.
With `O=C(OC1CCC(F)(F)CC1)N1CC2(CN(Cc3ccccc3C(F)(F)F)C2)C1` [Cpd B147] the figure was 3.25 nM.
`FC(F)(F)c1cccc(CNC2CC3(C2)CC(Nc2nc(Cc4ccc(Cl)cc4)ns2)C3)c1` (stereo not shown) [Cpd B325, N-(3-(4-chlorobenzyl)-1,2,4-thiadiazol-5-yl)-N′-(3-(trifluoromethyl)benzyl) spiro[3.3]heptane-2,6-diamine] came in with an EC50 of 36.2 nM.
Take `COc1cc(OC)nc(CN2CC3(C2)CN(C(=O)Cc2ccc(F)cc2)C3)n1` [Cpd B064, 1-[6-(4,6-Dimethoxy-pyrimidin-2-ylmethyl)-2,6-diaza-spiro[3.3]hept-2-yl]-2-(4-fluoro-phenyl)-ethanone]: the EC50 was 32.8 nM.
To `Cn1ncc(Cl)c1CN1CC2(C1)CN(C(=O)OC1CCC(F)(F)CC1)C2` [Cpd B142, 4,4-difluorocyclohexyl 6-((4-chloro-1-methylpyrazol-5-yl)methyl)-2,6-diazaspiro[3.3]heptane-2-carboxylate] belongs 864 nM; to `O=C(Cc1ccc(F)cc1)N1CC2(CN(Cc3ccccc3Cl)C2)C1` [Cpd B018, 1-[6-(2-Chloro-benzyl)-2,6-diaza-spiro[3.3]hept-2-yl]-2-(4-fluoro-phenyl)-ethanone], 0.97 nM.
In turn, `COc1cccc(CN2CC3(CN(Cc4ccc(F)cc4)C3)C2)c1` [Cpd B226] displayed an EC50 of 1.16 nM.
For `O=C(Cc1ccc(Cl)cc1)N1CC2(CN(CCc3ccc(F)cc3)C2)C1` [Cpd B048, 2-(4-chlorophenyl)-1-(6-(4-fluorophenethyl)-2,6-diazaspiro[3.3]heptan-2-yl)ethanone], a half-maximal response (EC50) required 8.85 nM.
With `Cc1cccnc1CN1CC2(C1)CN(C(=O)Cc1ccc(F)c(C(F)(F)F)c1)C2` [Cpd B077], the EC50 was determined as 3.68 nM.
With `Cc1cccnc1CN1CC2(C1)CN(S(=O)(=O)Cc1ccc(F)cc1)C2` [Cpd B213] the figure was 14.6 nM; with `Cc1cccnc1CN1CC2(C1)CN(C(=O)c1cccc3cc[nH]c13)C2` [Cpd B086], 437 nM.
Consider `COc1ccc(CCNC2CC3(C2)CC(Nc2nc(Cc4ccc(Cl)cc4)ns2)C3)cc1OC` (stereo not shown) [Cpd B335, N-(3-(4-chlorobenzyl)-1,2,4-thiadiazol-5-yl)-N′-(3,4-dimethoxyphenethyl) spiro[3.3]heptane-2,6-diamine], for which it took 3 nM to reach a half-maximal effect (EC50).
`Cc1csc(CN2CC3(C2)CN(C(=O)CC2CCC(F)(F)CC2)C3)n1` [Cpd B445] displayed an EC50 of 157 nM.
In turn, `O=S(=O)(Cc1ccc(C(F)(F)F)cc1)N1CC2(CN(Cc3ccc(F)cc3)C2)C1` [Cpd B216] had an EC50 of 5.69 nM.

One may read the EC50 as the concentration at which the effect is half-maximal. Read a high EC50 as lower potency in that assay.
